# Legend:
# in vitro [1] = settings: human, Caco-2
# Description: Apparent permeability of the compound across apical side to basolateral side in human Caco-2 cells incubated for 150 mins by LC-MS/MS analysis
# in vitro [2] = settings: human, Caco-2; remark: listed apart in the source
# Description: Apparent permeability of the compound across basolateral side to apical side in human Caco-2 cells incubated for 150 mins by LC-MS/MS analysis
# in vitro [3] = settings: human, Caco-2; remark: listed apart in the source
# Description: Efflux ratio of apparent permeability in human Caco-2 cells
# Rattus norvegicus [4] = species on record: Rattus norvegicus; assay: Selectivity index, ratio of IC50 for ALR1 in Wistar rat kidney to IC50 for ALR2 in Wistar rat lens
# [5] = Inhibition of ALR1 in Wistar rat kidney assessed as reduction in NADPH consumption using sodium D-glucuronate and NADPH as substrate preincubated for 1 mins followed by substrate addition and measured upto 4 mins by spectrophotometric analysis; type: tissue-based
# [6] = Inhibition of ALR2 in Wistar rat lens assessed as reduction in NADPH consumption using D,L-glyceraldehyde and NADPH as substrate preincubated for 1 mins followed by substrate addition and measured upto 4 mins by spectrophotometric analysis; type: tissue-based
# [7] = Solubility of the compound at >30 uM; type: physicochemical
# Rattus norvegicus [8] = species on record: Rattus norvegicus; assay: Inhibition of ALR2 in Wistar rat lens assessed as reduction in NADPH consumption at 10 uM using D,L-glyceraldehyde and NADPH as substrate preincubated for 1 mins followed by substrate addition and measured upto 4 mins by spectrophotometric analysis; type: tissue-based; settings: time 5.0 min
# Rattus norvegicus [9] = species on record: Rattus norvegicus; assay: Inhibition of ALR2 in Wistar rat lens assessed as reduction in NADPH consumption at 30 uM using D,L-glyceraldehyde and NADPH as substrate preincubated for 1 mins followed by substrate addition and measured upto 4 mins by spectrophotometric analysis; type: tissue-based; settings: time 5.0 min
# in vitro [10] = settings: dog, MDCK
# Description: Apparent permeability of the compound across apical side to basolateral side in dog MDCK-II cells incubated for 150 mins by LC-MS/MS analysis
# in vitro [11] = settings: dog, MDCK; remark: listed apart in the source
# Description: Efflux ratio of apparent permeability in dog MDCK-II cells
# in vitro [12] = settings: dog, MDCK; remark: listed apart in the source
# Description: Apparent permeability of the compound across basolateral side to apical side in dog MDCK-II cells incubated for 150 mins by LC-MS/MS analysis
# physchem [13] = settings: n-octanol/PBS buffer, pH 7.4
# physchem [14] = settings: PBS buffer, pH 7.4
# Rattus norvegicus [15] = species on record: Rattus norvegicus; assay: Inhibition of ALR2 in Wistar rat lens assessed as reduction in NADPH consumption at 50 uM using D,L-glyceraldehyde and NADPH as substrate preincubated for 1 mins followed by substrate addition and measured upto 4 mins by spectrophotometric analysis; type: tissue-based; settings: time 5.0 min
smiles,measurement,setting,value
NC(=O)N1c2ccccc2C=Cc2ccccc21 [CARBAMAZEPINE],Papp A→B at 2.5 h,in vitro [1],26.2 ×10⁻⁶ cm/s
same,Papp B→A at 2.5 h,in vitro [2],24.8 ×10⁻⁶ cm/s
same,efflux ratio,in vitro [3],0.9
COc1ccc(NC(=O)CN2C(=O)S/C(=C\c3ccc(O)cc3)C2=O)cc1,Ratio IC50,Rattus norvegicus [4],3.2
same,IC50,[5],5.3 µM
same,IC50,[6]; read-out: IC50,1.65 µM
CCCCNC(=O)CN1C(=O)S/C(=C\c2ccc(Cl)cc2)C1=O,solubility,[7],Insoluble
same,inhibition,Rattus norvegicus [8],6.53%
C#CCOc1ccc(/C=C2\SC(=O)N(CC(=O)NCc3ccccc3)C2=O)cc1,inhibition,Rattus norvegicus [8],30.1%
same,IC50,[6],Nd(Insoluble)
CCN(CC)C(=O)CN1C(=O)S/C(=C\c2ccc(Cl)cc2)C1=O,solubility,[7],Insoluble
same,inhibition,Rattus norvegicus [9],14%
O=C(CN1C(=O)S/C(=C\c2ccc(OCc3ccc(Cl)cc3Cl)cc2)C1=O)NCc1ccccc1,inhibition,Rattus norvegicus [8],11.9%
same,IC50,[6],Nd(Insoluble)
CCN(CC)C(=O)CN1C(=O)S/C(=C\c2ccc(O)cc2)C1=O,solubility,[7],Insoluble
same,inhibition,Rattus norvegicus [8],77.7%
same,Ratio IC50,Rattus norvegicus [4],9.4
same,IC50,[5],12.5 µM
same,IC50,[6]; read-out: IC50,1.33 µM
COc1cc2nc(N3CCN(C(=O)c4ccco4)CC3)nc(N)c2cc1OC [PRAZOSIN],Papp A→B at 2.5 h,in vitro [10],6.85 ×10⁻⁶ cm/s
same,efflux ratio,in vitro [11],1.9
same,Papp B→A at 2.5 h,in vitro [12],12.9 ×10⁻⁶ cm/s
CC(/C=C1\SC(=S)N(CC(=O)O)C1=O)=C\c1ccccc1,IC50,[6]; read-out: IC50,0.227 µM
O=c1[nH]c2ccccc2n1CCCN1CCC(n2c(=O)[nH]c3cc(Cl)ccc32)CC1 [DOMPERIDONE],Papp A→B at 2.5 h,in vitro [1],2.5 ×10⁻⁶ cm/s
same,Papp B→A at 2.5 h,in vitro [2],30.8 ×10⁻⁶ cm/s
same,efflux ratio,in vitro [3],12.2
COCCc1ccc(OCC(O)CNC(C)C)cc1 (centres undefined) [METOPROLOL],logD,physchem [13],0.05
CCOc1ccc(NC(=O)CN2C(=O)S/C(=C\c3ccc(OC)c(O)c3)C2=O)cc1,inhibition,Rattus norvegicus [8],25.3%
same,IC50,[6],Nd(Insoluble)
C[C@H]1O[C@@H](O[C@H]2[C@@H](O)C[C@H](O[C@H]3[C@@H](O)C[C@H](O[C@H]4CC[C@@]5(C)[C@H](CC[C@@H]6[C@@H]5C[C@@H](O)[C@]5(C)[C@@H](C7=CC(=O)OC7)CC[C@]65O)C4)O[C@@H]3C)O[C@@H]2C)C[C@H](O)[C@@H]1O [DIGOXIN],Papp A→B at 2.5 h,in vitro [10],0.19 ×10⁻⁶ cm/s
same,efflux ratio,in vitro [11],30.3
same,Papp B→A at 2.5 h,in vitro [12],5.66 ×10⁻⁶ cm/s
CCN(CC)C(=O)CN1C(=O)S/C(=C\c2cccc(OC)c2)C1=O,solubility,[7],Insoluble
same,inhibition,Rattus norvegicus [9],15%
CCN(CC)C(=O)CN1C(=O)S/C(=C\c2ccc(C)cc2)C1=O,solubility,[7],Insoluble
same,inhibition,Rattus norvegicus [9],20.2%
CC/C(=C(/CC)c1ccc(O)cc1)c1ccc(O)cc1 [DIETHYLSTILBESTROL],"solubility at 2 h, 200 µM",physchem [14],11.9 µM
CCc1ccccc1NC(=O)CN1C(=O)S/C(=C\c2ccc(O)cc2)C1=O,Ratio IC50,Rattus norvegicus [4],1.5
same,IC50,[5],2.85 µM
same,IC50,[6]; read-out: IC50,1.9 µM
CCCCNC(=O)CN1C(=O)S/C(=C\c2ccc(OC)cc2)C1=O,solubility,[7],Insoluble
same,Ratio IC50,Rattus norvegicus [4],0.8
same,IC50,[5],17 µM
same,IC50,[6]; read-out: IC50,20.3 µM
O=C(CN1C(=O)S/C(=C\c2ccccc2)C1=O)NC1CC1,solubility,[7],Insoluble
same,inhibition,Rattus norvegicus [8],2.85%
C=C[C@H]1C[N@@]2CC[C@H]1C[C@@H]2[C@@H](O)c1ccnc2ccc(OC)cc12 [QUINIDINE],Papp A→B at 2.5 h,in vitro [10],3.27 ×10⁻⁶ cm/s
same,efflux ratio,in vitro [11],6.6
same,Papp B→A at 2.5 h,in vitro [12],21.4 ×10⁻⁶ cm/s
O=C(CN1C(=O)S/C(=C\c2ccc(O)cc2)C1=O)Nc1ccccc1Cl,IC50,[5],13.5 µM
same,IC50,[6]; read-out: IC50,0.95 µM
same,logD,physchem [13],3.68
same,"solubility at 2 h, 200 µM",physchem [14],5.24 µM
C#CCOc1ccc(/C=C2\SC(=O)N(CC(=O)Nc3ccccc3)C2=O)cc1,inhibition,Rattus norvegicus [8],8.83%
same,IC50,[6],Nd(Insoluble)
COc1ccc(/C=C2\SC(=O)N(CC(=O)Nc3ccccc3)C2=O)cc1O,inhibition,Rattus norvegicus [8],29.9%
same,IC50,[6],Nd(Insoluble)
CCc1ccc(/C=C2\SC(=O)N(CC(=O)N(CC)CC)C2=O)cc1,solubility,[7],Insoluble
same,inhibition,Rattus norvegicus [9],5.05%
CCN(CC)C(=O)CN1C(=O)S/C(=C\c2cccc(O)c2)C1=O,solubility,[7],Insoluble
same,inhibition,Rattus norvegicus [9],0%
Cc1ncc2n1-c1ccc(Cl)cc1C(c1ccccc1F)=NC2 [MIDAZOLAM],logD,physchem [13],3.28
O=C(CN1C(=O)S/C(=C\c2cccc(O)c2)C1=O)NCc1ccccc1,Ratio IC50,Rattus norvegicus [4],8.6
same,IC50,[5],28 µM
same,IC50,[6]; read-out: IC50,3.25 µM
CCN(CC)C(=O)CN1C(=O)S/C(=C\c2ccccc2)C1=O,solubility,[7],Insoluble
same,inhibition,Rattus norvegicus [8],16.8%
same,IC50,[6]; read-out: IC50,23.5 µM
COc1ccc(NC(=O)CN2C(=O)S/C(=C\c3ccccc3)C2=O)cc1,solubility,[7],Insoluble
same,inhibition,Rattus norvegicus [8],29.2%
CN(C)CCC=C1c2ccccc2CCc2ccccc21 [AMITRIPTYLINE],logD,physchem [13],2.85
O=C(CN1C(=O)S/C(=C\c2ccccc2)C1=O)NCCc1ccccc1,solubility,[7],Insoluble
same,inhibition,Rattus norvegicus [8],13.2%
O=C(CN1C(=O)S/C(=C\c2ccc(OCc3ccc(Cl)cc3Cl)cc2)C1=O)Nc1ccccc1,inhibition,Rattus norvegicus [8],21.8%
same,IC50,[6],Nd(Insoluble)
CCN(CC)C(=O)CN1C(=O)S/C(=C\c2ccc(OC)cc2)C1=O,solubility,[7],Insoluble
same,inhibition,Rattus norvegicus [9],19.5%
O=C(CCCN1CCC(O)(c2ccc(Cl)cc2)CC1)c1ccc(F)cc1 [HALOPERIDOL],"solubility at 2 h, 200 µM",physchem [14],73.3 µM
CCN(CC)C(=O)CN1C(=O)S/C(=C\c2cccc(Cl)c2)C1=O,solubility,[7],Insoluble
same,inhibition,Rattus norvegicus [9],0%
COc1ccc(/C=C2\SC(=O)N(CC(=O)NCc3ccccc3)C2=O)cc1O,IC50,[6]; read-out: IC50,10.9 µM
CCCCNC(=O)CN1C(=O)S/C(=C\c2ccc(O)cc2)C1=O,solubility,[7],Insoluble
same,Ratio IC50,Rattus norvegicus [4],8.5
same,IC50,[5],48.5 µM
same,IC50,[6]; read-out: IC50,5.68 µM
O=C(CN1C(=O)S/C(=C\c2ccc(O)cc2)C1=O)Nc1ccc(F)cc1,Ratio IC50,Rattus norvegicus [4],5.4
same,IC50,[5],8.06 µM
same,IC50,[6]; read-out: IC50,1.47 µM
CCN(CC)C(=O)CN1C(=O)S/C(=C\c2ccc(O)c(OC)c2)C1=O,IC50,[6]; read-out: IC50,56 µM
same,inhibition,Rattus norvegicus [15],48%
CCN(CC)C(=O)CN1C(=O)S/C(=C\c2cccs2)C1=O,solubility,[7],Insoluble
same,inhibition,Rattus norvegicus [9],6.22%
O=C(CN1C(=O)S/C(=C\c2ccc(O)cc2)C1=O)Nc1ccccc1,Ratio IC50,Rattus norvegicus [4],1.3
same,IC50,[5],3.91 µM
same,IC50,[6]; read-out: IC50,2.93 µM
O=C(CN1C(=O)S/C(=C\c2ccc(O)cc2)C1=O)NCc1ccccc1,IC50,[6]; read-out: IC50,19.8 µM
CCN(CC)C(=O)CN1C(=O)S/C(=C\c2ccc(OC)c(O)c2)C1=O,inhibition,Rattus norvegicus [15],31.6%
CCN(CC)C(=O)CN1C(=O)S/C(=C/c2ccc(OC)c(OC)c2)C1=O,IC50,[6]; read-out: IC50,22.4 µM
same,inhibition,Rattus norvegicus [15],81.8%
